Assays:
[1] = target: T1, BCL2-BAD interaction (Homo sapiens, UniProt P10415); test: PPI between endogenous BCL2 of drug-treated cells and exogenous BAD-GFP (single-molecule pull-down, TIRF); type: cell-based; details: 24 hours
T1 construct: endogenous in cells; host or cells: HL60, OCI-LY3
Protocol: (§1) Blood cancer cells (The Korean Cell Line Bank and ATCC; HL-60 (CVCL_0002), OCI-LY3 (CVCL_8800)), Ramos (CVCL_0597), U937, THP1, and SUDHL8) and the blood cancer cell pellets from buffy coats of patients were each suspended in a lysis buffer (HEPES 50 mM NaCl 150 mM Glycerol 10% (w/v) GDN (Digitonin) 1% (w/v) with 2% (w/v) phosphatase inhibitor cocktail ⅔ (P5726, P0044)) and vortexed three times at regular intervals of 10 min. After 30 min, the lysis buffer containing the pellet homogenate was centrifuged at 15,000 g for 10 min. The supernatant thus formed was used as an analysis lysate to be applied to a substrate in subsequent experiments. […]
The cell lysate, prepared in Example 1.2, containing the probe-labeled first protein-interacting protein was added to the substrate prepared in Example 1.3. […] Then, protein-protein interactions were measured as follows:
The substrate was fixedly mounted on a total internal reflection fluorescence and imaged to obtain data for protein-protein interaction (binding). […]
(§2) For example, the method proposed in this Example can quantitatively measure changes in PPI intensity and complex formation after and before treatment with BCL2-targeting inhibitors. […]

[2] = target: T2, BCL2-BIM interaction (Homo sapiens, UniProt P10415); test: BCL2-BIM PPI intensity with inhibitor added together with BIM-GFP to pulled-down BCL2; type: binding; details: various concentrations of inhibitor added with BIM-GFP; BCL2 from HL60
T2 sequence (P10415 whole entry): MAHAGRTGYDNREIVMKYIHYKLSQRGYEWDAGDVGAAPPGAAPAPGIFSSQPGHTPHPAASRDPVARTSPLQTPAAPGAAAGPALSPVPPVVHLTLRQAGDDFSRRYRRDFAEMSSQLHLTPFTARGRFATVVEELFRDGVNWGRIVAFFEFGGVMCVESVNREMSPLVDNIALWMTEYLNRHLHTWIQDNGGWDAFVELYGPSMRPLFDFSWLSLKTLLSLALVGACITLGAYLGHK
Protocol: Excess lysate was washed off with a washing buffer (HEPES 50 mM NaCl 150 mM glycerol 1% GDN 0.03%). Then, protein-protein interactions were measured as follows:
This Example can be used to measure direct relationship between targeting inhibitors used and the BCL2 family proteins and related signaling proteins. To this end, BCL2 or MCL1 protein was used as a first protein while BIM-GFP protein served as a first protein-interacting protein.

[3] = system: BCL2; test: BCL2 expression level in drug-treated cells; details: OCI-LY3 cells, 24 hours
[4] = system: BAX (N-terminus exposed); test: Detection of N-terminus exposed (active conformation) BAX in GDN lysates of drug-treated cells; type: cell-based, human; details: Staurosporine for one hour or venetoclax for 24 hours; lysis buffer containing GDN
Source text: (§3) In order to achieve this Example, a specimen may be prepared by artificially inducing apoptosis.

[5] = system: BAX; test: BAX level after forced N-terminus exposure with Triton X-100 in lysates of drug-treated cells; type: cell-based, human; details: Staurosporine for one hour or venetoclax for 24 hours; lysis buffer containing Triton X-100
Source text: as §3

[6] = target: T3, MCL1-NOXA interaction (Homo sapiens, UniProt Q07820); test: PPI between endogenous MCL1 of drug-treated cells and exogenous GFP-NOXA; type: cell-based; details: HL60 or OCI-LY3 cells, 100 nM, 24 hours, vs DMSO
T3 construct: endogenous in cells; host or cells: HL60, OCI-LY3
T3 sequence (Q07820 whole entry): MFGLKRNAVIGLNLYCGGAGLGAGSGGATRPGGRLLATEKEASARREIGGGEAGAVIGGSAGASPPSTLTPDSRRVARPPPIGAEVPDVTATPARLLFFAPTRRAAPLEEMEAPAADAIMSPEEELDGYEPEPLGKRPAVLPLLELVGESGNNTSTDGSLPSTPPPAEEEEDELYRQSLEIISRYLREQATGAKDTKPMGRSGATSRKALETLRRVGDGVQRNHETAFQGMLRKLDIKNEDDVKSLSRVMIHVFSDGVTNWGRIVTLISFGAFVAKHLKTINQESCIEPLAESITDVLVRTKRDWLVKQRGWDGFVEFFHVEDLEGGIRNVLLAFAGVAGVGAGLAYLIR
Protocol: Excess lysate was washed off with a washing buffer (HEPES 50 mM NaCl 150 mM glycerol 1% GDN 0.03%). Then, protein-protein interactions were measured as follows: […]

[7] = target: T4, BCL-XL (Homo sapiens, UniProt Q07817); test: PPI of endogenous BCL-XL of drug-treated cells with exogenous BAD; type: cell-based; details: HL60 or OCI-LY3 cells, 100 nM, 24 hours, vs DMSO
T4 construct: endogenous in cells; host or cells: HL60, OCI-LY3
T4 sequence (Q07817 whole entry): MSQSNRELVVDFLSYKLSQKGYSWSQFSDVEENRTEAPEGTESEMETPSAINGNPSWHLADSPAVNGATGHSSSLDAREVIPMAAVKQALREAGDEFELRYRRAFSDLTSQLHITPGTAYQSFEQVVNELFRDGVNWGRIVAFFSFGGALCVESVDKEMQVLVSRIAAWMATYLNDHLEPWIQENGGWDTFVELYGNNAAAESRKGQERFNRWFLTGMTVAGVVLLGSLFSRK
Protocol: as §1
The cell lysate, prepared in Example 1.2, containing the probe-labeled first protein-interacting protein was added to the substrate prepared in Example 1.3. […] Then, protein-protein interactions were measured as follows: […]
as §2

[8] = system: leukocyte count; test: Leukocyte count of treated blood cancer patients; type: in vivo, human
Source text: The method provided herein can lead to a method for tracing molecular states of a patient with time. In greater detail, the interaction analysis of bone marrow or blood specimens collected at various stages from a blood cancer patient can be used to provide information helpful in determining BCL2 family protein-dependence and whether to administer a corresponding targeted anticancer agent. […] Afterwards, a cord blood stem cell transplantation brought about complete remission in the patient. In addition, time series diagnosis was performed for patient 2 in the same manner as for patient 1 (FIG. 35). In patient 2, the signaling pathway of the BCL2 family protein could not be controlled by prescribing the FLT3 targeting inhibitor, either. […] From the results obtained above, it is understood that quizartinib prescription cannot bring about any clinical effect.

[9] = target: T2, BCL2-BIM interaction; test: BCL2-BIM PPI in bone marrow or whole blood specimens of blood cancer patients over the course of treatment; type: in vivo; set-up: PPI counts between BCL2, MCL1, or BCL-XL, all endogenous to the samples from patient 1, and exogenous BIM; from tissue; host or cells: bone marrow and whole blood of blood cancer patients; details: patient 1; bone marrow after quizartinib, whole blood after venetoclax and LDAC
Source text: The method provided herein can lead to a method for tracing molecular states of a patient with time. In greater detail, the interaction analysis of bone marrow or blood specimens collected at various stages from a blood cancer patient can be used to provide information helpful in determining BCL2 family protein-dependence and whether to administer a corresponding targeted anticancer agent. […] Afterwards, a cord blood stem cell transplantation brought about complete remission in the patient.
In addition, time series diagnosis was performed for patient 2 in the same manner as for patient 1 (FIG. 35). In patient 2, the signaling pathway of the BCL2 family protein could not be controlled by prescribing the FLT3 targeting inhibitor, either. […] From the results obtained above, it is understood that quizartinib prescription cannot bring about any clinical effect.

T1 sequence (P10415 whole entry): as the sequence (P10415 whole entry) above

Q: With `Cc1c2c(nn1C)CSCc1cc(n(C)n1)CSc1cc(c3ccccc3c1)OCCCc1c(C(=O)O)n(C)c3c-2c(Cl)ccc13` [AZD5991] as the compound, how does the “BCL2-BAD interaction (PPI)” value ([1]; OCI-LY3 cells, vs non-treated group) read?
A: no influences

Q: What about the “BCL2-BIM PPI intensity” value [2] of the same compound?
A: not affected

Q: And the “expression level of BCL2” value [3]?
A: does not incite a significant change

Q: With `CN[C@@H]1C[C@H]2O[C@@](C)([C@@H]1OC)n1c3ccccc3c3c4c(c5c6ccccc6n2c5c31)C(=O)NC4` [Staurosporine] as the compound, how does the “N-terminus exposed BAX signals” value [4] read?
A: increased signals

Q: And the “N-terminus-exposed BAX after artificial exposure with Triton X-100” value [5]?
A: constant values

Q: With `CO[C@H]1/C=C/C[C@H](C)[C@@H](C)S(=O)(=O)NC(=O)c2ccc3c(c2)N(C[C@@H]2CC[C@H]21)C[C@@]1(CCCc2cc(Cl)ccc21)CO3` [AMG176] as the compound, how does the “BCL2-BAD PPI intensity” value ([1]; HL60 and OCI-LY3 cells, 100 nM, vs DMSO) read?
A: did not change

Q: And the “MCL1-NOXA PPI” value [6]?
A: selectively increase

Q: What about the “BCL-XL PPI intensity” value [7] of the same compound?
A: responsive to none

Q: With `CC(C)(C)c1cc(NC(=O)Nc2ccc(-c3cn4c(n3)sc3cc(OCCN5CCOCC5)ccc34)cc2)no1` [quizartinib] as the compound, how does the leukocyte count ([8]; patient 1) read?
A: drastic rise

Q: And the leukocyte count ([8]; patient 2)?
A: about three folds increased

Q: And the “BCL2-BIM PPI” value [9]?
A: drastic increase
